Measurements reported in the RepoRT retention time repository.

Test: RP, Thermo Scientific Hypersil GOLD, 200 × 2.1 mm, 1.9 µm, 40 °C, 0.4 mL/min, estimated dead time 1.1 min; A: water + 0.2% formic acid; B: acetonitrile; gradient (min/%B) 0/10 0.5/10 22/100 30/100 30.2/10 35/10
Details: stereoisomer not certain

| Structure (SMILES) | LC retention time |
| --- | --- |
| CC1(C(=O)O)CCC2(C)CCC3(C)C(=CC(=O)C4C5(C)CCC(O)C(C)(C)C5CCC43C)C2C1 (stereo not drawn) [18beta-glycyrrhetinic acid] | 16.6 min |
| CC1CCC2(C(=O)O)CCC3(C)C(=CCC4C5(C)CCC(O)C(C)(C)C5CCC43C)C2C1C (centres undefined) [ursolic acid] | 19.2 min |
| CC=C1C(OC2OC(CO)C(O)C(O)C2O)OC=C(C(=O)OC)C1CC(=O)OCCc1ccc(O)c(O)c1 (centres undefined) [oleuropein] | 7.05 min |
| O=C1CC(c2ccc(O)cc2)Oc2cc(O)cc(O)c21 (centres undefined) [naringenin] | 8.88 min |
| COc1ccc(C2CC(=O)c3c(O)cc(OC4OC(CO)C(O)C(O)C4OC4OC(C)C(O)C(O)C4O)cc3O2)cc1O (centres undefined) [hesperetin 7-O-neohesperidoside] | 6.61 min |
| CC(C)C1=CC2=CCC3C(C)(C(=O)O)CCCC3(C)C2CC1 (centres undefined) [abietic acid] | 19.3 min |
| CC1CCC2C(C)C3C(CC4C5CC=C6CC(OC7OC(CO)C(O)C(OC8OC(CO)C(O)C(O)C8O)C7OC7OC(C)C(O)C(O)C7O)CCC6(C)C5CCC43C)N2C1 (stereo not drawn) [alpha-solanine] | 7.91 min |
| CC1CCC2C(C)C3C(CC4C5CC=C6CC(OC7OC(CO)C(OC8OC(C)C(O)C(O)C8O)C(O)C7OC7OC(C)C(O)C(O)C7O)CCC6(C)C5CCC43C)N2C1 (stereo not drawn) [alpha-chaconine] | 7.97 min |
| CC1CCC2(C(=O)O)CCC3(C)C(=CCC4C5(C)CC(O)C(O)C(C)(CO)C5CCC43C)C2C1C (centres undefined) [asiatic acid] | 12.7 min |
| O=C(O)c1cc(O)c(O)c(O)c1 [gallic acid] | 1.6 min |
| OCCc1ccc(O)c(O)c1 [hydroxytyrosol] | 2.46 min |
| O=C(O)c1ccc(O)c(O)c1 [protocatechuic acid] | 2.41 min |
| C=C(C)C1CCC2(C(=O)O)CCC3(C)C(CCC4C5(C)CCC(O)C(C)(C)C5CCC43C)C12 (centres undefined) [betulinic acid] | 18.8 min |
| O=c1cc(-c2ccc(O)c(O)c2)oc2cc(O)cc(O)c12 [luteolin] | 7.75 min |
| O=c1ccc2ccc(O)cc2o1 [7-hydroxycoumarin] | 5.43 min |
| CC1OC(Oc2c(-c3ccc(O)c(O)c3)oc3cc(O)cc(O)c3c2=O)C(O)C(O)C1O (centres undefined) [quercetin 3-rhamnoside] | 6.02 min |
| COc1cc(CC(CO)C(CO)Cc2ccc(O)c(OC)c2)ccc1O (centres undefined) [secoisolariciresinol] | 6.86 min |

| Structure (SMILES) | LC retention time |
| --- | --- |
| CC1CCC2(NC1)OC1CC3C4CCC5CC(OC6OC(CO)C(OC7OC(CO)C(O)C(OC8OCC(O)C(O)C8O)C7OC7OC(CO)C(O)C(O)C7O)C(O)C6O)CCC5(C)C4CCC3(C)C1C2C (centres undefined) [tomatin] | 7.55 min |
| O=C(C=Cc1ccc(O)c(O)c1)OC1CC(O)(C(=O)O)CC(O)C1O (centres undefined) [chlorogenic acid] | 3.21 min |
| COc1cc(-c2[o+]c3cc(O)cc(O)c3cc2OC2OC(CO)C(O)C(O)C2O)cc(OC)c1O (centres undefined) [malvidin 3-glucoside] | 3.86 min |
| COc1ccc(C2CC(=O)c3c(O)cc(OC4OC(COC5OC(C)C(O)C(O)C5O)C(O)C(O)C4O)cc3O2)cc1O (centres undefined) [hesperetin 7-rutinoside] | 6.39 min |
| COc1cc(CC2COC(c3ccc(O)c(OC)c3)C2CO)ccc1O (centres undefined) [lariciresinol] | 7.24 min |
| CC1OC(OC2C(Oc3cc(O)c4c(c3)OC(c3ccc(O)cc3)CC4=O)OC(CO)C(O)C2O)C(O)C(O)C1O (centres undefined) [naringenin 7-O-neohesperidoside] | 6.18 min |
| COc1ccc(C2CC(=O)c3c(O)cc(O)cc3O2)cc1O (centres undefined) [hesperetin] | 9.3 min |
| O=C(C=Cc1ccc(O)c(O)c1)OCCc1ccccc1 [caffeic acid phenylethyl ester] | 12.2 min |
| CC1OC(OCC2OC(Oc3c(-c4ccc(O)c(O)c4)oc4cc(O)cc(O)c4c3=O)C(O)C(O)C2O)C(O)C(O)C1O (centres undefined) [quercetin 3-rutinoside] | 5.07 min |
| O=c1c(O)c(-c2ccc(O)cc2)oc2cc(O)cc(O)c12 [kaempferol] | 9.01 min |
| COc1cc(-c2oc3cc(O)cc(O)c3c(=O)c2O)ccc1O [isorhamnetin] | 9.25 min |
| O=C(O)/C=C/c1ccc(O)cc1 [p-coumaric acid] | 5.04 min |
| O=c1c(O)c(-c2ccc(OC3OC(CO)C(O)C(O)C3O)c(O)c2)oc2cc(O)cc(O)c12 (centres undefined) [quercetin 4'-glucoside] | 6.25 min |
| CC1OC(OCC2OC(Oc3c(-c4ccc(O)cc4)oc4cc(O)cc(O)c4c3=O)C(O)C(O)C2O)C(O)C(O)C1O (centres undefined) [kaempferol 3-rutinoside] | 5.64 min |
| O=c1c(O)c(-c2ccc(O)c(O)c2)oc2cc(O)cc(O)c12 [quercetin] | 7.8 min |
| O=C(CCc1ccc(O)cc1)c1c(O)cc(O)cc1OC1OC(CO)C(O)C(O)C1O (centres undefined) [phloridzin] | 6.77 min |
| O=C(C=Cc1ccc(O)cc1)OC1CC(O)(C(=O)O)CC(O)C1O (centres undefined) [p-coumarlyquinnic acid] | 4.21 min |
